Measurements taken from patent US20170015555A1, “LONG-TERM PRESERVATION AND NOVEL APPLICATION OF CHLOROUS ACID AQUEOUS SOLUTION FORMULATION” (priority 2013, published 2017).

Columns and labels:
[1] = test system: Enterohemorrhagic Escherichia coli O111; experiment: Sterilizing effect on floor surface after wiping off imitation vomit, carpet; type: cell-based
From the text: (§1) 1) Chlorous acid aqueous solution formulation (see Example 1: Table 11) Treatment sheet (material: 100% cotton): (about 27×40 cm) *Impregnated at a ratio of weight of treatment sheet (g): amount of liquid (ml)=1:3 2) Imitation vomit Miso solution: adjusted to pH of 2 with hydrochloric acid 3) Test Microbes that were Used E. coli: Escherichia coli IF03927 Staphylococcus aureus: Staphylococcus aureus IF0 12732 Thermoduric Microbes (Bacillus cereus): Bacillus cereus NBRC15305 Microbes of the genus Salmonella: Salmonella Enteritidis IF03313 Enterohemorrhagic Escherichia coli O157: Escherichia coli O157 Enterohemorrhagic Escherichia coli O111: Escherichia coli O111 Enterohemorrhagic Escherichia coli O26: Escherichia coli O26
(§2) (1) Imitation vomit was spread in an area about the size of an A4 sheet. (2) 5 dry sheets were laid thereon. (3) An agent solution was poured on the dry sheets to wipe off the imitation vomit. (4) A cotton swab was soaked with sterile saline. A portion where imitation vomit was spread was scrubbed with the cotton swab to collect microbes remaining on the floor. After suspending in saline, the solution was spread on a petri dish and cultured. The number of each of the microbes was measured. (5) Test operations 3 and 4 were repeated a total of 7 times (repeated until the imitation vomit could be removed completely).

[2] = test system: Enterohemorrhagic Escherichia coli O157; experiment: as above; type: cell-based; conditions: 1000 ppm available chlorine
From the text: as §1, §2

[3] = test system: Microbes of the genus Salmonella: Salmonella Enteritidis IF03313; type: cell-based; conditions: stored at 25° C. Day 0; 1000 ppm available chlorine
From the text: as §1, §2

[4] = Deodorizing effect (chemical deodorization, gas detector tube); conditions: spray 20 cc
From the text: In order to evaluate tests on deodorizing effects, the present Example examined deodorizing effects by using standards regarding air freshening and deodorization ([II]-2 Method of Testing Deodorizing Efficacy (Chemical Deodorization)) set forth by the Air Fresheners and Deodorizers Conference (http://www.houkou.gr.jp/) as the efficacy testing method, which is adopted by Japan Food Research Laboratories.
Ammonium odor: Ammonium Standard Solution II (Wako Pure Chemical Industries, for testing malodorous substances) Amine odor: methyl mercaptan standard solution (Wako Pure Chemical Industries, for testing malodorous substances) Sulfur odor: hydrogen sulfide (self-made, used hydrogen sulfide that was generated by adding sulfuric acid to zinc sulfide)
Gas detector tube made by GASTEC Corporation Ammonium odor: Detector tube ammonium 3 L made by GASTEC Corporation Amino odor: Detector tube methyl mercaptan 71 made by GASTEC Corporation Sulfur odor: Detector tube hydrogen sulfide 4 LL made by GASTEC Corporation
Tests were conducted in compliance with ([II]-2 Method of Testing Deodorizing Efficacy (Chemical Deodorization)) set forth by the Air Fresheners and Deodorizers Conference.
The tests were carried out by static culture method, using a commercially-available airbag with a spigot having a volume of about 10 L as test containers. The volume of airbags was appropriately changed in accordance with the size of the product.
The bags were filled with odorless air. Malodor concentrations were measured over time at room temperature (about 20° C.). (3 points or higher, detection tube method (FIG. 16), measured by an instrument analysis method or olfactory measurement method. When decrease in the blank was observed, the decrease was suitably corrected. When measuring by olfactory measuring method, the airbag spigot was opened for direct sniffing, or gas was transferred to an odor bag while wearing a mask to perform olfactory measurement in an autonomic respiration form. Measured air was not returned to the source).

pathogenic microbes = experiment: Sterilizing effect on floor surface when treating vomit, summary over all tested microbes and floors; type: cell-based
From the text: as §1
(1) Imitation vomit was spread in an area about the size of an A4 sheet. (2) 5 agent solution-containing treatment sheets were laid thereon. (3) The imitation vomit was wiped off. (4) A cotton swab was soaked with sterile saline. A portion where imitation vomit was spread was scrubbed with the cotton swab to collect microbes remaining on the floor. After suspending in saline, the solution was spread on a petri dish and cultured. The number of each of the microbes was measured. […]
(1) Imitation vomit was spread in an area about the size of an A4 sheet. […] The number of each of the microbes was measured. […]

[5] = stored at 25° C. Day 0, 1000 ppm
[6] = stored at 25° C. Day 7, Sodium Hypochlorite, 0 ppm

OCl [Sodium Hypochlorite, sodium hypochlorite]
Number of Times Wiped 1 Time (remaining microbes) [1, 5]: <10
Number of Times Wiped 2 Times (remaining microbes) [1, 5]: <10
Number of Times Wiped 3 Times (remaining microbes) [1, 5]: <10
Number of Times Wiped 1 Time (remaining microbes) [1, 6]: 2.3 × 10^3
Number of Times Wiped 2 Times (remaining microbes) [1, 6]: 1.9 × 10^3
Number of Times Wiped 3 Times (remaining microbes) [1, 6]: 1.1 × 10^3
Number of Times Wiped 1 Time (remaining microbes) ([2]; stored at 25° C. Day 0): <10
Number of Times Wiped 2 Times (remaining microbes) ([2]; stored at 25° C. Day 0): <10
Number of Times Wiped 3 Times (remaining microbes) ([2]; stored at 25° C. Day 0): <10
Number of Times Wiped 1 Time (remaining microbes) ([2]; stored at 25° C. Day 7): <10
Number of Times Wiped 2 Times (remaining microbes) ([2]; stored at 25° C. Day 7): <10
Number of Times Wiped 3 Times (remaining microbes) ([2]; stored at 25° C. Day 7): <10
Number of Times Wiped 1 Time (remaining microbes) [3]: <10
Number of Times Wiped 2 Times (remaining microbes) [3]: <10
Number of Times Wiped 3 Times (remaining microbes) [3]: <10
residual concentration of hydrogen sulfide, after correction (Control = 100) ([4]; Table 57, 0 h after spraying): 0
residual concentration of hydrogen sulfide, before correction ([4]; Table 57, 0 h after spraying): 0 ppm
residual concentration of hydrogen sulfide, after correction (Control = 100) ([4]; Table 57, 3 h after spraying): 0
residual concentration of hydrogen sulfide, before correction ([4]; Table 57, 3 h after spraying): 0 ppm
residual concentration of hydrogen sulfide, after correction (Control = 100) ([4]; Table 57, 6 h after spraying): 0
residual concentration of hydrogen sulfide, before correction ([4]; Table 57, 6 h after spraying): 0 ppm
residual concentration of hydrogen sulfide, after correction (Control = 100) ([4]; Table 57, 9 h after spraying): 0
residual concentration of hydrogen sulfide, before correction ([4]; Table 57, 9 h after spraying): 0 ppm
residual concentration of hydrogen sulfide, after correction (Control = 100) ([4]; Table 57, 24 h after spraying): 0
residual concentration of hydrogen sulfide, before correction ([4]; Table 57, 24 h after spraying): 0 ppm
residual concentration of hydrogen sulfide, after correction (Control = 100) ([4]; Table 57, before spraying): 100
residual concentration of hydrogen sulfide, before correction ([4]; Table 57, before spraying): 40 ppm
residual concentration of hydrogen sulfide, after correction (Control = 100) ([4]; Table 58, 0 h after spraying): 0
residual concentration of hydrogen sulfide, before correction ([4]; Table 58, 0 h after spraying): 0 ppm
residual concentration of hydrogen sulfide, after correction (Control = 100) ([4]; Table 58, 3 h after spraying): 0
residual concentration of hydrogen sulfide, before correction ([4]; Table 58, 3 h after spraying): 0 ppm
residual concentration of hydrogen sulfide, after correction (Control = 100) ([4]; Table 58, 6 h after spraying): 0
residual concentration of hydrogen sulfide, before correction ([4]; Table 58, 6 h after spraying): 0 ppm
residual concentration of hydrogen sulfide, after correction (Control = 100) ([4]; Table 58, 9 h after spraying): 0
residual concentration of hydrogen sulfide, before correction ([4]; Table 58, 9 h after spraying): 0 ppm
residual concentration of hydrogen sulfide, after correction (Control = 100) ([4]; Table 58, 24 h after spraying): 0
residual concentration of hydrogen sulfide, before correction ([4]; Table 58, 24 h after spraying): 0 ppm
residual concentration of hydrogen sulfide, after correction (Control = 100) ([4]; Table 58, before spraying): 100
residual concentration of hydrogen sulfide, before correction ([4]; Table 58, before spraying): 50 ppm
sterilization of pathogenic microbes on floor surface by wiping (pathogenic microbes; day 0): could be sterilized
sterilization of pathogenic microbes on floor surface by wiping (pathogenic microbes; preserved for 7 days): there were cases in which pathogenic microbes could not be sterilized
